{"source": "patent US20240050403A1", "about": "“THERAPY OF POST-OPERATIVE EMESIS WITH AMISULPRIDE” (Acacia Pharma Limited, priority 2016, published 2024)", "assay_type_in_all_cases": "in vivo, human", "key": {"adult surgical patients [1]": {"test_system": "adult surgical patients", "test": "Two Phase III clinical trials, multi-centre, double-blind, randomised, placebo-controlled, PONV incidence", "protocol": "In two multi-centre, double-blind, randomised, placebo-controlled Phase III clinical trials involving 626 evaluable, adult surgical patients (again conducted by the applicant), administration of amisulpride at 5 mg was associated with a PONV incidence of 48%, compared to 59% with placebo (p<0.01)."}, "adult surgical patients [2]": {"test_system": "adult surgical patients", "test": "Phase II clinical trial, multi-centre, double-blind, randomised, placebo-controlled, PONV incidence", "protocol": "In a multi-centre, double-blind, randomised, placebo-controlled Phase II clinical trial in adult surgical patients (conducted by the applicant), administration of amisulpride at 5 mg was associated with a PONV incidence of 40%, compared to 69% with placebo (p<0.01)."}, "[3]": {"test_system": "adult, surgical patients at high risk of PONV", "test": "Study 1: Phase III study of amisulpride as combination prophylaxis against PONV in high-risk patients", "protocol": "A randomised, double-blind, placebo-controlled Phase Ill study of amisulpride as combination prophylaxis against post-operative nausea and vomiting in high-risk patients was conducted. The primary aim of the study was to assess the efficacy of amisulpride at 5 mg in the prevention of post-operative nausea and vomiting (PONV) in adult, surgical patients at high risk of PONV. The amisulpride was administered in combination with a standard anti-emetic.\nThe subjects of the study were 1204 randomised adult patients ([…]) at high risk of PONV who were undergoing elective ambulatory (day-case) or in-patient surgery under general inhalational anaesthesia for an expected duration of at least one hour from induction of anaesthesia to extubation. Of the 1204 randomised patients, 1147 were dosed and eligible.\nHigh risk of PONV was defined as having at least three of the following risk factors: • Past history of PONV and/or motion sickness • Habitual non-smoking status • Female • Expected use of post-operative opioid analgesia\n5 mg amisulpride was administered as a single, slow, intravenous (IV) push over one minute at the time of induction of anaesthesia; given in combination with a standard anti-emetic. Examples of standard anti-emetics used were ondansetron, granisetron and dexamethasone.\nThe two arms of the study were as follows: • Arm 1: amisulpride IV at 5 mg in combination with a standard anti-emetic which is not a dopamine D2-antagonist (e.g. ondansetron IV at 4 mg, granisetron IV at 1 mg, or dexamethasone IV at 4 mg); • Arm 2 (control): amisulpride IV placebo in combination with a standard anti-emetic, as defined above • The primary efficacy variable was the absence or presence of PONV during the 24-hour post-operative period, where PONV was defined as the occurrence of one or more emetic episodes (vomiting and/or retching) or the receipt of one or more doses of rescue anti-emetic medication. Absence of PONV by this definition was termed “Complete Response” (CR). A number of secondary variables were evaluated including the occurrence of emesis (vomiting and/or retching).\nA comparison of the incidence of CR in the 0-24-hour period after surgery between the amisulpride group and the placebo group using Pearson's x2 test with Yates's continuity correction at a one-sided significance level of 2.5%. The primary efficacy analysis population was the modified intent-to-treat (mITT) population.\nSecondary efficacy variables assessed by incidence (e.g., emesis) were compared between the groups using Pearson's x2 test."}}, "note": "Where “and” joins values, the source holds several entries; their conditions need not be identical. Equal values may be shown once."}
{"compound": "CCN1CCCC1CNC(=O)c1cc(S(=O)(=O)CC)c(N)cc1OC", "note": "(racemic) [Amisulpride, amisulpride]", "values": [{"measurement": "PONV incidence", "setting": "adult surgical patients [1]; amisulpride at 5 mg, 626 evaluable patients, placebo 59% (p<0.01)", "value": 48, "unit": "%"}, {"measurement": "safety profile versus placebo", "setting": "adult surgical patients [1]; amisulpride versus placebo", "value": "no significant difference between the safety profiles"}, {"measurement": "transient increases in serum prolactin levels", "setting": "adult surgical patients [1]; amisulpride versus placebo", "value": "more common with amisulpride"}, {"measurement": "PONV incidence", "setting": "adult surgical patients [2]; amisulpride at 5 mg, placebo 69% (p<0.01)", "value": 40, "unit": "%"}, {"measurement": "adverse events, laboratory or ECG abnormalities versus placebo", "setting": "adult surgical patients [2]; amisulpride versus placebo", "value": "no difference in the nature, incidence or severity of adverse events, or of laboratory or ECG abnormalities"}, {"measurement": "Calculated RRR (relative risk reduction) of post-operative emesis", "setting": "[3]; 5 mg IV plus a standard anti-emetic versus placebo plus standard anti-emetic", "value": 30.94, "unit": "%"}, {"measurement": "Calculated RRR (relative risk reduction) of PONV", "setting": "[3]; 5 mg IV plus a standard anti-emetic versus placebo plus standard anti-emetic, 24 hour period", "value": "20.8% and 20.76%"}, {"measurement": "Calculated RRR (relative risk reduction) of post-operative emesis", "setting": "[3]; 5 mg IV plus a standard anti-emetic versus placebo plus standard anti-emetic, listed as amisulpride", "value": 31, "unit": "%"}, {"measurement": "Difference in PONV rate (improvement in CR rate) versus placebo plus standard anti-emetic", "setting": "[3]; 5 mg IV plus a standard anti-emetic, 24 hour period, mITT, p<0.001", "value": 11.08, "unit": "%"}, {"measurement": "Number of patients with PONV", "setting": "[3]; 5 mg IV plus a standard anti-emetic, 24 hour period, of 572 patients", "value": 242}, {"measurement": "Number of patients with CR (complete response)", "setting": "[3]; 5 mg IV plus a standard anti-emetic, 24 hour period, of 572 patients (mITT)", "value": 330}, {"measurement": "% patients with PONV", "setting": "[3]; 5 mg IV plus a standard anti-emetic, 24 hour period, placebo plus standard anti-emetic 53.39", "value": 42.31, "unit": "%"}, {"measurement": "Number of patients with post-operative emesis (vomiting and/or retching)", "setting": "[3]; 5 mg IV plus a standard anti-emetic, of 572 patients", "value": 79}, {"measurement": "Difference in post-operative emesis rate versus placebo plus standard anti-emetic", "setting": "[3]; 5 mg IV plus a standard anti-emetic, p=0.003", "value": 6.19, "unit": "%"}, {"measurement": "% patients with post-operative emesis (vomiting and/or retching)", "setting": "[3]; 5 mg IV plus a standard anti-emetic, placebo plus standard anti-emetic 20.00", "value": 13.81, "unit": "%"}]}
